In patent US20100285145A1, “GPR 119 MODULATORS” (PFIZER INC, priority 2009, published 2010):
Values joined by “and” are separate entries in the source; they are usually repeats but may differ in a detail not shown here. Identical values can stand only once.

Tests used:
human GPR119 [1] = target: T1, human GPR119 (Homo sapiens, UniProt Q8TDV5); experiment: cAMP HTRF functional assay (hGPR119 HEK-CRE beta-lactamase cells); type: cell-based; design: host or cells: HEK293-CRE beta-lactamase; conditions: for Emax: read-out: Intrinsic Activity (Human cAMP)
T1 sequence (Q8TDV5 1-335): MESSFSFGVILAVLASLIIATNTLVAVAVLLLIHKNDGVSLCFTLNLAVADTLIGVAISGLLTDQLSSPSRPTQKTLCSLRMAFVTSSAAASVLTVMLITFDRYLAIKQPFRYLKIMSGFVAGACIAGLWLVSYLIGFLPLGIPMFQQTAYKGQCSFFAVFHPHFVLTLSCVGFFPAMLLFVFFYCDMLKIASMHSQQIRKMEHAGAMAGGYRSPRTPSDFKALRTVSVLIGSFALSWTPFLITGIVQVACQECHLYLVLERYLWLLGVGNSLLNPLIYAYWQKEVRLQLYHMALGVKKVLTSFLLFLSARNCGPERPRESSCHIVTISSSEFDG
In short: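 hGPR119 HEK-CRE cells (5000/well), cultured overnight, then treated 30 min at room temperature with compound plus 400 microM IBMX (0.58% DMSO). cAMP measured by competitive HTRF immunoassay after 60 min lysis/detection, converted to nM via standard curve; EC50 from 4-parameter logistic fit.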

human GPR119 [2] = target: T1, human GPR119; experiment: β-Arrestin PathHunter assay (U2OS hGPR119 β-arrestin cells); type: cell-based; conditions: for EC50: read-out: Human B-arrestin Functional EC50; for Emax: U2OS, read-out: Intrinsic Activity (Human B-arrestin)
Protocol: GPR119 agonist activity was also determined with a cell-based assay utilizing DiscoverX PathHunter β-arrestin cell assay technology and their U2OS hGPR119 β-arrestin cell line (DiscoverX Cat # 93-0356C3). In this assay, agonist activation is determined by measuring agonist-induced interaction of β-arrestin with activated GPR119. A small, 42 amino acid enzyme fragment, called ProLink was appended to the C-terminus of GPR119. Arrestin was fused to the larger enzyme fragment, termed EA (Enzyme Acceptor). Activation of GPR119 stimulates binding of arrestin and forces the complementation of the two enzyme fragments, resulting in formation of a functional β-galactosidase enzyme capable of hydrolyzing substrate and generating a chemiluminescent signal.
Specifically, U2OS hGPR119 β-arrestin cells (DiscoverX 1×10^7/mL) are removed from cryopreservation and diluted in growth medium (Minimum essential medium (MEM; Gibco Cat # 11095-080), 10% heat inactivated fetal bovine serum (HIFBS; Sigma Cat # F4135-100), […] sodium pyruvate (Sigma Cat # S8636), 500 microg/mL G418 (Sigma Cat # G8168) and 250 microg/mL Hygromycin B (Invitrogen Cat # 10687-010). The cell concentration was adjusted to 1.66×10^5 cells/mL and 30 mLs of this suspension was added to a T-175 flask and incubated at 37 degrees Celsius in a humidified environment in 5% carbon dioxide. After 24 hours, the cells were removed from the T-175 flask with enzyme-free cell dissociation buffer (Gibco cat #13151-014), centrifuged at 800×g and then re-suspended in plating medium (Opti-MEM I (Invitrogen/BRL Cat # 31985-070) and 2% charcoal dextran treated fetal bovine serum (CD serum; HyClone Cat # SH30068.03).
The cell concentration was adjusted to 2.5×10^5 cells/mL with plating medium and 20 microliters of this cell suspension (5000 cells) was added to each well of a white Greiner 384-well low volume assay plate (VWR cat #82051-458) and the plates were incubated at 37 degrees Celsius in a humidified environment in 5% carbon dioxide.
After 16 hours (overnight) the assay plates were removed from the incubator and varying concentrations of each compound to be tested (diluted in assay buffer (1×HBSS+CaCl2+MgCl2 (Gibco Cat # 14025-092), 20 mM HEPES pH 7.0 (Gibco Cat # 15630-080) and 0.1% BSA (Sigma Cat # A9576)) were added to the assay plate wells in a volume of 5 microliters (final DMSO concentration was 0.5%). After a 90 minute incubation at 37 degrees Celsius in a humidified environment in 5% carbon dioxide, 12 microliters of Galacton Star β-galactosidase substrate (PathHunter Detection Kit (DiscoveRx Cat # 93-0001); prepared as described in the manufacturers assay protocol) was added to each well of the assay plate. The plates were incubated at room temperature and after 60 minutes, changes in the luminescence were read with an Envision 2104 multilabel plate reader at 0.1 seconds per well. EC50 determinations were made from an agonist-response curves analyzed with a curve fitting program using a 4-parameter logistic dose response equation.

[3] = HTRF cAMP, 30 min, 400 microM IBMX, each line a separate determination
[4] = percent of maximal activity relative to standard GPR119 agonist at 10 micromolar
[5] = U2OS hGPR119 β-arrestin cells, 90 min, each line a separate determination
[6] = curve was extrapolated to 100% to calculate an EC50
[7] = marked **: curve was extrapolated to 100%

Compound | EC50 (human GPR119 [1]; [3]) | Intrinsic Activity (Human cAMP) (human GPR119 [1]; [4]) | Emax (human GPR119 [1]; [4]) | EC50 (human GPR119 [2]; [5]) | Emax (human GPR119 [2]; [4]) | other results
CC(C)OC(=O)N1CCC(Oc2cc(N3CCc4cc(C#N)ccc43)ncn2)CC1 [Example 10, Isopropyl 4-{[6-(5-cyano-2,3-dihydro-1H-indol-1-yl)pyrimidin-4-yl]oxy}piperidine-1-carboxylate] | 13.8 nM and 32.9 nM | 105% | 104% |  |  | 
Cc1c(O[C@H]2[C@@H]3COC[C@H]2CN(C(=O)OC2(C)CC2)C3)ncnc1N1CCc2ncccc21 [Example 25, 1-Methylcyclopropyl (9-anti)-9-{[6-(2,3-dihydro-1H-pyrrolo[3,2-b]pyridin-1-yl)-5-methylpyrimidin-4-yl]oxy}-3-oxa-7-azabicyclo[3.3.1]nonane-7-carboxylate] |  | 52.9% and 68.3% and 67.7% and 74.3% and 62.9% |  | 14.7 nM and 12.4 nM and 19.3 nM and 40.7 nM and 18.2 nM |  | Intrinsic Activity (Human B-arrestin) (human GPR119 [2]; [4]): 58.7% and 81% and 78.6% and 68.6% and 74.5%
Cc1c(O[C@@H]2[C@@H]3COC[C@H]2CN(C(=O)OC(C)C)C3)ncnc1N1CCc2ncccc21 [Example 29, Isopropyl (9-syn)-9-{[6-(2,3-dihydro-1H-pyrrolo[3,2-b]pyridin-1-yl)-5-methylpyrimidin-4-yl]oxy}-3-oxa-7-azabicyclo[3.3.1]nonane-7-carboxylate] | > 10000 nM |  |  | > 10000 nM |  | 
Cc1c(O[C@H]2CCN(C(=O)OC3(C)CC3)C[C@H]2F)ncnc1N1CCc2ncccc21 [Example 17, 1-Methylcyclopropyl (3R,4S)-4-{[6-(2,3-dihydro-1H-pyrrolo[3,2-b]pyridin-1-yl)-5-methylpyrimidin-4-yl]oxy}-3-fluoropiperidine-1-carboxylate] | 19 nM and 28.5 nM and 13.7 nM and 14.8 nM and 16.9 nM and 19.4 nM | 69.6% and 48.7% and 53.8% and 63.9% and 53.1% and 48.5% |  | 2.13 nM and 5.86 nM and 6.62 nM and 5.05 nM and 4.7 nM |  | Intrinsic Activity (Human B-arrestin) (human GPR119 [2]; [4]): 68.9% and 54.3% and 59.2% and 52.8% and 76.9%
CC(C)OC(=O)N1CCC(Oc2cc(N3CCc4cc(C(=O)N(C)C)ccc43)ncn2)CC1 [Example 9, 4-[6-(5-Dimethylcarbamoyl-2,3-dihydroindol-1-yl)-pyrimidin-4-yloxy]-piperidine-1-carboxylic acid isopropyl ester] | 70.9 nM |  | 97.5% |  |  | 
Cc1c(O[C@H]2CCN(C(=O)OC(C)(C)C)C[C@H]2F)ncnc1N1CCc2ncccc21 (racemic) [Example 16, tert-Butyl (3R,4S)-4-{[6-(2,3-dihydro-1H-pyrrolo[3,2-b]pyridin-1-yl)-5-methylpyrimidin-4-yl]oxy}-3-fluoropiperidine-1-carboxylate (racemic)] | 6.37 nM and 15 nM and 9.29 nM | 21.8% and 27.7% | 24.8% | 2.78 nM | 48.6% | 
Cc1c(OC2CCN(C(=O)OC(C)C)CC2)ncnc1N1CCc2ncccc21 [Example 13, Isopropyl 4-{[6-(2,3-dihydro-1H-pyrrolo[3,2-b]pyridin-1-yl)-5-methylpyrimidin-4-yl]oxy}-piperidine-1-carboxylate] | 24.1 nM and 39.7 nM and 76.3 nM and 30.2 nM | 19.5% and 29.2% and 24.4% | 20.3% | 89.4 nM | 29.1% | 
CC(C)OC(=O)N1C[C@H]2COC[C@@H](C1)[C@H]2Oc1cc(N2CCc3cc(S(C)(=O)=O)ccc32)ncn1 [Example 1, Isopropyl 9-anti-({6-[5-(methylsulfonyl)-2,3-dihydro-1H-indol-1-yl]pyrimidin-4-yl}oxy)-3-oxa-7-azabicyclo[3.3.1]nonane-7-carboxylate] | 339 nM and 567 nM and 1280 nM | 94% and 87.9% | 96.5% |  |  | 
Cc1c(OC2CCN(C(=O)OC(C)C)CC2)ncnc1N1CCc2cc(S(C)(=O)=O)ccc21 [Example 8, Isopropyl 4-({5-methyl-6-[5-(methylsulfonyl)-2,3-dihydro-1H-indol-1-yl]pyrimidin-4-yl}oxy)piperidine-1-carboxylate] | 43.9 nM |  | 53% |  |  | 
CC(C)OC(=O)N1CCC(Oc2ncnc(N3CCc4cc(S(C)(=O)=O)ccc43)c2C#N)CC1 [Example 6, Isopropyl 4-({5-cyano-6-[5-(methylsulfonyl)-2,3-dihydro-1H-indol-1-yl]pyrimidin-4-yl}oxy)piperidine-1-carboxylate] | 84.5 nM and 116 nM | 94.2% | 95.3% | 4.76 nM | 70% | 
CC(C)(C)OC(=O)N1CCC(Oc2cc(N3CCc4cc(S(C)(=O)=O)ccc43)ncn2)C(F)C1 (racemic) [Example 15, tert-Butyl 3-fluoro-4-({6-[5-(methylsulfonyl)-2,3-dihydro-1H-indol-1-yl]pyrimidin-4-yl}oxy)piperidine-1-carboxylate] | 10.3 nM and 12.9 nM and 49.5 nM | 102% and 93.5% | 92.5% | 0.999 nM | 77.1% | 
Cc1c(O[C@@H]2[C@@H]3COC[C@H]2CN(C(=O)OC(C)C)C3)ncnc1N1CCc2cc(S(C)(=O)=O)ccc21 [Example 23, Isopropyl (9-syn)-9-({5-methyl-6-[5-(methylsulfonyl)-2,3-dihydro-1H-indol-1-yl]pyrimidin-4-yl}oxy)-3-oxa-7-azabicyclo[3.3.1]nonane-7-carboxylate] |  | 27.9% and 29.5% and 16.7% | 26.3% |  | 51.6% | 
CC(C)OC(=O)N1CCC(Oc2cc(N3CCc4ncccc43)ncn2)CC1 [Example 12, Isopropyl 4-{[6-(2,3-dihydro-1H-pyrrolo[3,2-b]pyridin-1-yl)pyrimidin-4-yl]oxy}piperidine-1-carboxylate] | 784 nM and 1140 nM and 1180 nM and 331 nM and 792 nM | 56.5% (2×) and 53.6% and 44% | 56% |  |  | EC50 (human GPR119 [1]; [6]): 8150 nM and 9620 nM and 8350 nM and 9480 nM; Intrinsic Activity (Human cAMP) (human GPR119 [1]; [7]): 100** %; Emax (human GPR119 [1]; [7]): 100%; Emax (human GPR119 [2]; [7]): 100%; EC50 (human GPR119 [2]; [6]): 2570 nM
CCC1(OC(=O)N2C[C@H]3COC[C@@H](C2)[C@H]3Oc2ncnc(N3CCc4ncccc43)c2C)CC1 [Example 26, 1-Ethylcyclopropyl (9-anti)-9-{[6-(2,3-dihydro-1H-pyrrolo-[3,2-b]pyridin-1-yl)-5-methylpyrimidin-4-yl]oxy}-3-oxa-7-azabicyclo[3.3.1]nonane-7-carboxylate] | 96.9 nM and 112 nM and 91.1 nM and 163 nM | 65.1% and 67.6% and 43.6% and 50% |  | 23.8 nM and 18.2 nM and 21.3 nM and 26.3 nM | 68.6% | Intrinsic Activity (Human B-arrestin) (human GPR119 [2]; [4]): 82.5% and 68.9% and 73.4%
CC(C)OC(=O)N1CCC(Oc2cc(N3CCc4cc(S(=O)(=O)CCO)ccc43)ncn2)CC1 [Example 11, Isopropyl 4-[(6-{5-[(2-hydroxyethyl)sulfonyl]-2,3-dihydro-1H-indol-1-yl}pyrimidin-4-yl)oxy]piperidine-1-carboxylate] | 99.4 nM |  | 90.3% |  |  | 
